Test results taken from paper PMC11986975, “A Cdk5 inhibitor restores cognitive function and alleviates type 2 diabetes in mice” (iScience, 2025).

How the values were obtained:
[1] = PAMPA blood-brain barrier permeability assay (brain polar lipid extract); format: in vitro ADME; details: 7 h incubation, 100-500 uM, > 10*10^-6 cm/s = high permeability, read-out: Paap (PAMPA-BBB permeability)
Description: PAMPA assay was performed using a PAMPA filter plate (MAIPNTR10) coated with brain polar lipid extract (141101P) to evaluate blood-brain barrier (BBB) permeability of the compounds. The assay was performed with the help of the protocol provided by Merck Millipore on their official website and articles as cited.[62]^,[63] 5% of brain polar solution was used to coat the donor plate (15ul per well) by drying the plate in a fume hood. The acceptor plate was filled with 300ul of buffer (5% DMSO in PBS). The donor plate coated with brain polar solution was placed above the acceptor plate and different concentrations of Cdk5 inhibitor (100-500uM) dissolved in 5% DMSO were added to it (150ul per well). After 7 h of incubation, the absorbance was measured at broad spectrum 250–500 nm. […] For permeability, the Papp of the drugs was calculated.Paap = C ∗ -ln (1-[drugacceptor]/[Drugequilibrium]); C=VD∗VA/(VD + VA) ∗ area ∗ timePaap < 10∗10^−6 cm/s - Low permeability; Paap > 10∗10^−6 cm/s - high permeability

[2] = MTT cell toxicity assay in HepG2 cells; format: cell-based; details: human, all doses (25 to 100 μM)
Description: (§1) HEK293T, HepG2, and N2A cells were used in the study representing kidney, liver and neuronal cell lines respectively. The cells were cultured in DMEM supplemented with 10% fetal bovine serum and antibiotics at 37°C under 5% CO2. The cells were tested negative for mycoplasma.
(§2) To evaluate the compound toxicity for the Cdk5 inhibitors, an MTT assay was performed in HEK293T, HepG2, and N2A cells at varying concentrations. Six hours after cell seeding, the compounds were added in different amounts, and the cells were harvested after 24 h for further analysis. N2A cells were transfected using Lipofectamine-3000 reagent, co-transfecting with plasmids encoding Cdk5/p35 and Cdk5/p25 for 12 h, followed by inhibitor treatment to assess their effects in the cell culture system. The concentrations of each plasmids used was 1 μg, total of 3 μg per well for 6 well plates.

[3] = MTT cell toxicity assay in N2A cells; format: cell-based; details: mouse, N2A (Neuro2A) cells, all doses (25 to 100 μM)
Description: as §1, §2

HFD-fed mice [4] = assay: Insulin tolerance test (ITT) in HFD mice; format: in vivo; details: i.p., both dosages 20 and 40 mg/kg/day, 20 days
Description: (§3) For the glucose tolerance test, 2 g/kg of glucose was utilized, and 0.75U/kg of human insulin was employed The glucose tolerance test (GTT) and insulin tolerance test (ITT) were performed in HFD mice models after 20 weeks of HFD feeding followed by 20 days of drug administration.[48] For GTT the mice were kept in a fasting period for overnight before glucose injections of 2 g/kg intraperitoneally. For ITT the mice were kept in a fasting for 6 h prior to insulin injection of 0.75 U/kg intraperitoneally. A one-touch glucometer was used to assess the blood sugar levels at various intervals (0, 60, and 120 min) following intraperitoneal infusion of both glucose and insulin.[23]^,[49]^,[50]^,[51] After 20 weeks of a HFD and 20 days of drug administration, the tests were carried out.

[5] = MTT cell toxicity assay in HEK293T cells; format: cell-based; details: human, all doses (25 to 100 μM)
Description: as §1, §2

HFD-fed mice [6] = assay: Glucose tolerance test (GTT) in HFD mice; format: in vivo; details: i.p., both dosages 20 and 40 mg/kg/day, 20 days
Description: as §3

HFD-fed mice [7] = assay: Grip strength test in HFD mice; format: in vivo; details: i.p., 40 mg/kg/day, 20 days
Description: A grip strength meter was used to measure the forelimb grip strength in mice.[54] The mouse was given a chance to grab the gauge with its forelimbs before having its tail gently pulled back. Digital transducers were used to record the muscular force. Five trials were conducted on each mouse.[23]

HFD-fed mice [8] = assay: Elevated plus maze (EPM) in HFD mice; format: in vivo; details: i.p., 20 days, compared to HFD group
Text: In order to examine anxiety-like behavior, phenotype transgenic and knockout mice, and screen for anxiolytic and anxiogenic medicines, this maze takes advantage of the natural fear of open, high areas in rodents.[56]^,[57]
The EPM experiment is a widely utilized technique in behavioral neuroscience to evaluate anxiety-related behaviors in mice.[57] The apparatus comprises two open arms and two closed arms arranged in a plus-shaped configuration and elevated above the ground. Mice are introduced to the center of the maze, and their movements are observed over a set period of 5 min.[56]^,[58] The amount of time spent in the open arms versus the closed arms is recorded, with more time in the open arms indicating lower anxiety levels. The distance traveled in each arm were also analyzed using ANYmaze software. This method leverages the natural tendency of rodents to avoid open spaces and seek enclosed areas.

Cdk5/p35 = Cdk5/p35 (Homo sapiens, UniProt Q00535); assay: Cdk5 kinase assay (ADP-Glo) with Cdk5/p35 complex; format: biochemical; details: 10 μM ATP, histone substrate, inhibitor 0-100 nM
Chain of Cdk5/p35 (Q00535 whole entry, species assumed): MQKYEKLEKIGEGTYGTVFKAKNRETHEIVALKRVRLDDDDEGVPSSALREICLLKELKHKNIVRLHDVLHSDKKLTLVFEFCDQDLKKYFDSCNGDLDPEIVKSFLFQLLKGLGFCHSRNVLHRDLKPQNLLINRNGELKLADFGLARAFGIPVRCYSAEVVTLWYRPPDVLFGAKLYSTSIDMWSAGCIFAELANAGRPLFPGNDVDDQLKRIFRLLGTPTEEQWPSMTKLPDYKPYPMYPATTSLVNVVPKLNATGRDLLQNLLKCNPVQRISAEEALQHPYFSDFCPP
Chain of Cdk5/p35 (Q15078 whole entry partner, species assumed): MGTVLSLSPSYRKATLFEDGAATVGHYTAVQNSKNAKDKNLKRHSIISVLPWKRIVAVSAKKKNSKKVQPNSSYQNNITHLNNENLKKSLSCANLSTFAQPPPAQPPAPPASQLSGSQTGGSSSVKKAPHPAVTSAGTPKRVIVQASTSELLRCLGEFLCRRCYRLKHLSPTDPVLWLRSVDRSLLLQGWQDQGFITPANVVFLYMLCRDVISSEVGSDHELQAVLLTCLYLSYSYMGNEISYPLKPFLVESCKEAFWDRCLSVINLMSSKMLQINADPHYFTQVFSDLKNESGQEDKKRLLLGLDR
Description: The test tube Cdk5 Kinase assay was performed utilizing Cdk5/p35 and Cdk5/p25 complexes as kinases, following the modified procedure outlined in a previous study,[52] using a Promega ADP-GloTM Kinase Assay kit. The reaction was carried out with 10 μM ATP and 2 μg of histone as the substrate for Cdk5 complexes. To study the inhibition patterns, 19 Cdk5 inhibitors (BLINK1-19) identified through molecular docking were added to the Cdk5 kinase reaction in increasing concentrations ranging from 0 to 100 nM. The IC50 (half-maximal inhibitory concentration) values of all the inhibitors were calculated based on Log(inhibitor) vs. normalized response using GraphPad software.

Compound: O=C(COc1ccccc1C(=O)Nc1cccc(Cl)c1Cl)Nc1ccc(N2CCOCC2)c(Cl)c1 [BLINK11, 2-(2-((3-chloro-4-morpholinophenyl)amino)-2-oxoethoxy)-N-(2,3-dichlorophenyl)benzamide]
- Papp at 7 h [1]: > 10 ×10⁻⁶ cm/s
- viability at 24 h [2]: > 50%
- viability at 24 h [3]: > 50%
- Insulin tolerance test (ITT) (HFD-fed mice [4]): significant rescue
- viability at 24 h [5]: > 50%
- Glucose tolerance test (GTT) (HFD-fed mice [6]): significant rescue
- Grip strength (HFD-fed mice [7]): rescue behavior
- Anxiety behavior in elevated plus maze (time in open and closed arms) (HFD-fed mice [8]): rescuing effect on anxiety behavior
- IC50 (Cdk5/p35): 17.1 nM

Compound: COc1ccc(C(=O)C[C@@]2(O)C(=O)N(Cc3ccccc3)c3ccc(Br)cc32)cc1[N+](=O)[O-] [BLINK15]
- Papp at 7 h [1]: > 10 ×10⁻⁶ cm/s
- viability at 24 h [2]: > 50%
- viability at 24 h [3]: > 50%
- Insulin tolerance test (ITT) (HFD-fed mice [4]): significant rescue
- viability at 24 h [5]: > 50%
- Glucose tolerance test (GTT) (HFD-fed mice [6]): significant rescue
- Grip strength (HFD-fed mice [7]): rescue behavior
- Anxiety behavior in elevated plus maze (time in open and closed arms) (HFD-fed mice [8]): no significant difference compared to the HFD group
- IC50 (Cdk5/p35): 29.3 nM
